# Results: US3992371A, “Penicillins substituted with heterocyclic and substituted phenyl groups” (Sumitomo Chemical Company, Limited, priority 1973, dated 1976)
# Legend:
# [1] = tested on: Pseudomonas; details: background statement; cited from earlier work
# [2] = tested on: gram-positive and gram-negative bacteria; details: background statement; cited from earlier work
# [3] = tested on: Pseudomonas aeruginosa 104; test: Minimal inhibitory concentration, agar dilution method; format: cell-based
# Excerpt: When determined according to the agar dilution method, the penicillins (I) afford the minimal inhibitory concentrations against test microorganisms as shown in Table 2.
Molecule,antimicrobial activity against Pseudomonas [1],inhibition of the growth of gram-positive and gram-negative bacteria [2],MIC [3]
"CC1(C)S[C@@H]2[C@H](NC(=O)C3(N)CCCCC3)C(=O)N2[C@H]1C(=O)O [Cyclacillin, 6-(1-amino-cyclohexanecarboxamide)penicillanic acid]",do not exert any appreciable antimicrobial activity against Pseudomonas,inhibit the growth of various gram-positive and gram-negative bacteria,
"CC1(C)S[C@@H]2C(NC(=O)C(N)c3ccc(O)cc3)C(=O)N2[C@H]1C(=O)O (stereo partly drawn) [Amoxycillin, 6-(α-amino-p-hydroxyphenylacetamido)penicillanic acid]",do not exert any appreciable antimicrobial activity against Pseudomonas,inhibit the growth of various gram-positive and gram-negative bacteria,
"CC1(C)S[C@@H]2C(NC(=O)C(N)c3ccccc3)C(=O)N2[C@H]1C(=O)O (stereo partly drawn) [Ampicillin, 6-(α-amino-phenylacetamido)penicillanic acid]",do not exert any appreciable antimicrobial activity against Pseudomonas,inhibit the growth of various gram-positive and gram-negative bacteria,> 500 µg/mL
6(α-amino-thienylacetamido)penicillanic acid,do not exert any appreciable antimicrobial activity against Pseudomonas,inhibit the growth of various gram-positive and gram-negative bacteria,
